≈ marks a conversion by molar mass, not a printed value. Calls of active or inactive are those of the source. No cut-off for these calls is given here.
How the values were obtained:
[1] = system: THP-1; experiment: Antiinflammatory activity in human PMA-stimulated THP1 cells assessed as inhibition of LPS-induced IL-6 production at 10 uM treated 30 mins before LPS challenge measured after 24 hrs by ELISA; type: functional
[2] = system: THP-1; experiment: Antiinflammatory activity in human PMA-stimulated THP1 cells assessed as inhibition of LPS-induced TNFalpha production at 10 uM treated 30 mins before LPS challenge measured after 24 hrs by ELISA; type: functional
[3] = system: Candida albicans; experiment: Antifungal activity against Candida albicans by agar well diffusion method; type: functional
[4] = system: Bacillus subtilis; experiment: Antibacterial activity against Bacillus subtilis by agar well diffusion method; type: functional
[5] = system: Aspergillus flavus; experiment: Antifungal activity against Aspergillus flavus by agar well diffusion method; type: functional
[6] = system: Fusarium solani; experiment: Antifungal activity against Fusarium solani by agar well diffusion method; type: functional
[7] = system: Staphylococcus aureus; experiment: Antibacterial activity against Staphylococcus aureus by agar well diffusion method; type: functional
[8] = system: Salmonella typhimurium; experiment: Antibacterial activity against Salmonella typhimurium by agar well diffusion method; type: functional, Salmonella enterica subsp. enterica serovar Typhimurium; conditions: Salmonella enterica
[9] = system: Aspergillus niger; experiment: Antifungal activity against Aspergillus niger by agar well diffusion method; type: functional
[10] = system: Escherichia coli; experiment: Antibacterial activity against Escherichia coli by agar well diffusion method; type: functional
[11] = system: Salmonella typhimurium; experiment: Antibacterial activity against Salmonella typhimurium up to 200 ug/ml by agar well diffusion method; type: functional, organism-based; conditions: Salmonella enterica subsp. enterica serovar Typhimurium
[12] = system: Bacillus subtilis; experiment: Antibacterial activity against Bacillus subtilis up to 200 ug/ml by agar well diffusion method; type: functional, organism-based
[13] = system: Escherichia coli; experiment: Antibacterial activity against Escherichia coli up to 200 ug/ml by agar well diffusion method; type: functional, organism-based
[14] = system: Staphylococcus aureus; experiment: Antibacterial activity against Staphylococcus aureus up to 200 ug/ml by agar well diffusion method; type: functional, organism-based
[15] = system: Aspergillus niger; experiment: Antifungal activity against Aspergillus niger up to 200 ug/ml by agar well diffusion method; type: functional, organism-based
[16] = system: Aspergillus flavus; experiment: Antifungal activity against Aspergillus flavus up to 200 ug/ml by agar well diffusion method; type: functional, organism-based
[17] = system: Fusarium solani; experiment: Antifungal activity against Fusarium solani up to 200 ug/ml by agar well diffusion method; type: functional, organism-based

SMILES | inhibition at 10 µM [1] | inhibition at 10 µM [2] | MIC [3] | MIC [4] | MIC [5] | MIC [6] | MIC [7] | MIC [8] | MIC [9] | MIC [10] | Activity [11] | Activity [12] | Activity [13] | Activity [14] | Activity [15] | Activity [16] | Activity [17]
O=C(Nc1ccc(-c2cc(Nc3cccc(C(F)(F)F)c3)ncn2)cc1)Nc1cccc(C(F)(F)F)c1 | 40% | 28% | 25 µg/mL (≈ 48.3 µM) | 40 µg/mL (≈ 77.3 µM) | 20 µg/mL (≈ 38.7 µM) | 20 µg/mL (≈ 38.7 µM) | 25 µg/mL (≈ 48.3 µM) | 80 µg/mL (≈ 155 µM) | 35 µg/mL (≈ 67.6 µM) | 35 µg/mL (≈ 67.6 µM) | – | – | – | – | – | – | –
COc1cccc(NC(=O)Nc2ccc(-c3cc(Nc4cccc(C(F)(F)F)c4)ncn3)cc2)c1 | 18% | 11% | 55 µg/mL (≈ 115 µM) | 30 µg/mL (≈ 62.6 µM) | 20 µg/mL (≈ 41.7 µM) | 20 µg/mL (≈ 41.7 µM) | 35 µg/mL (≈ 73 µM) | 30 µg/mL (≈ 62.6 µM) | 35 µg/mL (≈ 73 µM) | 30 µg/mL (≈ 62.6 µM) | – | – | – | – | – | – | –
Nc1ccc(-c2cc(Nc3cccc(C(F)(F)F)c3)ncn2)cc1 | 6% | 0% | 80 µg/mL (≈ 242 µM) | – | 80 µg/mL (≈ 242 µM) | 90 µg/mL (≈ 272 µM) | – | – | 80 µg/mL (≈ 242 µM) | – | inactive | inactive | inactive | inactive | – | – | –
O=C(Nc1ccc(-c2cc(Nc3cccc(C(F)(F)F)c3)ncn2)cc1)Nc1cccc(Cl)c1F | 96% | 78% | 90 µg/mL (≈ 179 µM) | – | – | – | 90 µg/mL (≈ 179 µM) | – | – | – | inactive | inactive | inactive | – | inactive | inactive | inactive
O=S(=O)(Nc1ccc(-c2cc(Nc3cccc(C(F)(F)F)c3)ncn2)cc1)c1ccccc1OC(F)(F)F | 0% | 0% | 30 µg/mL (≈ 54.1 µM) | 10 µg/mL (≈ 18 µM) | 20 µg/mL (≈ 36.1 µM) | 20 µg/mL (≈ 36.1 µM) | 10 µg/mL (≈ 18 µM) | 10 µg/mL (≈ 18 µM) | 60 µg/mL (≈ 108 µM) | 20 µg/mL (≈ 36.1 µM) | – | – | – | – | – | – | –
N#Cc1cccc(S(=O)(=O)Nc2ccc(-c3cc(Nc4cccc(C(F)(F)F)c4)ncn3)cc2)c1 | 12% | 0% | 55 µg/mL (≈ 111 µM) | 65 µg/mL (≈ 131 µM) | 35 µg/mL (≈ 70.6 µM) | 20 µg/mL (≈ 40.4 µM) | 40 µg/mL (≈ 80.7 µM) | 45 µg/mL (≈ 90.8 µM) | 20 µg/mL (≈ 40.4 µM) | 25 µg/mL (≈ 50.5 µM) | – | – | – | – | – | – | –
O=S(=O)(Nc1ccc(-c2cc(Nc3cccc(C(F)(F)F)c3)ncn2)cc1)c1ccc(Br)cc1 | 11% | 6% | 80 µg/mL (≈ 146 µM) | – | 95 µg/mL (≈ 173 µM) | – | 80 µg/mL (≈ 146 µM) | – | 95 µg/mL (≈ 173 µM) | – | inactive | inactive | inactive | – | – | – | –
FC(F)(F)c1cccc(Nc2cc(-c3ccc(NC(=S)Nc4ccccc4C(F)(F)F)cc3)ncn2)c1 | 82% | 68% | 15 µg/mL (≈ 28.1 µM) | – | 15 µg/mL (≈ 28.1 µM) | 15 µg/mL (≈ 28.1 µM) | – | – | 25 µg/mL (≈ 46.9 µM) | – | inactive | inactive | inactive | inactive | – | – | –
COc1ccc(NC(=S)Nc2ccc(-c3cc(Nc4cccc(C(F)(F)F)c4)ncn3)cc2)cc1 | 8% | 3% | 80 µg/mL (≈ 161 µM) | – | 90 µg/mL (≈ 182 µM) | 90 µg/mL (≈ 182 µM) | – | – | – | – | inactive | inactive | inactive | inactive | inactive | – | –
COc1ccc(OC)c(S(=O)(=O)Nc2ccc(-c3cc(Nc4cccc(C(F)(F)F)c4)ncn3)cc2)c1 | 26% | 8% | 25 µg/mL (≈ 47.1 µM) | 30 µg/mL (≈ 56.5 µM) | 40 µg/mL (≈ 75.4 µM) | 15 µg/mL (≈ 28.3 µM) | 45 µg/mL (≈ 84.8 µM) | 35 µg/mL (≈ 66 µM) | 15 µg/mL (≈ 28.3 µM) | 25 µg/mL (≈ 47.1 µM) | – | – | – | – | – | – | –
Clc1ccc(COC(Cn2ccnc2)c2ccc(Cl)cc2Cl)c(Cl)c1 (configuration not stated) [MICONAZOLE] | – | – | 20 µg/mL (≈ 48.1 µM) | – | 20 µg/mL (≈ 48.1 µM) | 15 µg/mL (≈ 36 µM) | – | – | 15 µg/mL (≈ 36 µM) | – | – | – | – | – | – | – | –
N#Cc1ccc(NC(=O)Nc2ccc(-c3cc(Nc4cccc(C(F)(F)F)c4)ncn3)cc2)cc1 | 80% | 61% | 80 µg/mL (≈ 169 µM) | – | 80 µg/mL (≈ 169 µM) | 75 µg/mL (≈ 158 µM) | – | – | 90 µg/mL (≈ 190 µM) | – | inactive | inactive | inactive | inactive | – | – | –
FC(F)(F)c1cccc(Nc2cc(-c3ccc(NC(=S)Nc4cc(C(F)(F)F)cc(C(F)(F)F)c4)cc3)ncn2)c1 | 0% | 0% | 90 µg/mL (≈ 150 µM) | 25 µg/mL (≈ 41.6 µM) | – | 75 µg/mL (≈ 125 µM) | 20 µg/mL (≈ 33.3 µM) | 25 µg/mL (≈ 41.6 µM) | – | 25 µg/mL (≈ 41.6 µM) | – | – | – | – | inactive | inactive | –
Cc1ccc(F)cc1S(=O)(=O)Nc1ccc(-c2cc(Nc3cccc(C(F)(F)F)c3)ncn2)cc1 | 56% | 48% | 90 µg/mL (≈ 179 µM) | 10 µg/mL (≈ 19.9 µM) | 90 µg/mL (≈ 179 µM) | 90 µg/mL (≈ 179 µM) | 15 µg/mL (≈ 29.9 µM) | 15 µg/mL (≈ 29.9 µM) | – | 15 µg/mL (≈ 29.9 µM) | – | – | – | – | inactive | – | –
CSc1ccc(NC(=O)Nc2ccc(-c3cc(Nc4cccc(C(F)(F)F)c4)ncn3)cc2)cc1 | 0% | 0% | 90 µg/mL (≈ 182 µM) | 90 µg/mL (≈ 182 µM) | 90 µg/mL (≈ 182 µM) | 90 µg/mL (≈ 182 µM) | 75 µg/mL (≈ 151 µM) | 90 µg/mL (≈ 182 µM) | – | 90 µg/mL (≈ 182 µM) | – | – | – | – | inactive | – | –
O=C(O)c1cn(C2CC2)c2cc(N3CCNCC3)c(F)cc2c1=O [CIPROFLOXACIN] | – | – | – | 15 µg/mL (≈ 45.3 µM) | – | – | 20 µg/mL (≈ 60.4 µM) | 20 µg/mL (≈ 60.4 µM) | – | 15 µg/mL (≈ 45.3 µM) | – | – | – | – | – | – | –
Cc1ccc(NC(=O)Nc2ccc(-c3cc(Nc4cccc(C(F)(F)F)c4)ncn3)cc2)cc1C | 27% | 16% | 40 µg/mL (≈ 83.8 µM) | 90 µg/mL (≈ 188 µM) | 30 µg/mL (≈ 62.8 µM) | 60 µg/mL (≈ 126 µM) | 90 µg/mL (≈ 188 µM) | – | 75 µg/mL (≈ 157 µM) | – | inactive | – | inactive | – | – | – | –
O=[N+]([O-])c1ccc(-c2cc(Cl)ncn2)cc1 | 0% | 0% | 90 µg/mL (≈ 382 µM) | – | 90 µg/mL (≈ 382 µM) | – | – | – | 90 µg/mL (≈ 382 µM) | – | inactive | inactive | inactive | inactive | – | – | inactive
N#Cc1cccc(NC(=S)Nc2ccc(-c3cc(Nc4cccc(C(F)(F)F)c4)ncn3)cc2)c1 | 16% | 11% | 20 µg/mL (≈ 40.8 µM) | – | 20 µg/mL (≈ 40.8 µM) | 20 µg/mL (≈ 40.8 µM) | 90 µg/mL (≈ 183 µM) | 90 µg/mL (≈ 183 µM) | 40 µg/mL (≈ 81.5 µM) | 90 µg/mL (≈ 183 µM) | – | inactive | – | – | – | – | –
CC1(C)OB(c2ccc([N+](=O)[O-])cc2)OC1(C)C | 0% | 0% | 90 µg/mL (≈ 361 µM) | – | – | – | – | – | – | – | inactive | inactive | inactive | inactive | inactive | inactive | inactive
Fc1ccccc1NC(=S)Nc1ccc(-c2cc(Nc3cccc(C(F)(F)F)c3)ncn2)cc1 | 62% | 50% | 90 µg/mL (≈ 186 µM) | 90 µg/mL (≈ 186 µM) | 90 µg/mL (≈ 186 µM) | 90 µg/mL (≈ 186 µM) | 90 µg/mL (≈ 186 µM) | – | – | 90 µg/mL (≈ 186 µM) | inactive | – | – | – | inactive | – | –

Reference: ChEMBL document CHEMBL2021896, “A novel pyrimidine derivatives with aryl urea, thiourea and sulfonamide moieties: synthesis, anti-inflammatory and antimicrobial evaluation” (2012)
